For one test, the target named is T1, Mer (Homo sapiens, UniProt Q12866).
T1 construct: host or cells: 293A cells (Thermo Fisher #R70507)
T1 sequence (Q12866 21-999): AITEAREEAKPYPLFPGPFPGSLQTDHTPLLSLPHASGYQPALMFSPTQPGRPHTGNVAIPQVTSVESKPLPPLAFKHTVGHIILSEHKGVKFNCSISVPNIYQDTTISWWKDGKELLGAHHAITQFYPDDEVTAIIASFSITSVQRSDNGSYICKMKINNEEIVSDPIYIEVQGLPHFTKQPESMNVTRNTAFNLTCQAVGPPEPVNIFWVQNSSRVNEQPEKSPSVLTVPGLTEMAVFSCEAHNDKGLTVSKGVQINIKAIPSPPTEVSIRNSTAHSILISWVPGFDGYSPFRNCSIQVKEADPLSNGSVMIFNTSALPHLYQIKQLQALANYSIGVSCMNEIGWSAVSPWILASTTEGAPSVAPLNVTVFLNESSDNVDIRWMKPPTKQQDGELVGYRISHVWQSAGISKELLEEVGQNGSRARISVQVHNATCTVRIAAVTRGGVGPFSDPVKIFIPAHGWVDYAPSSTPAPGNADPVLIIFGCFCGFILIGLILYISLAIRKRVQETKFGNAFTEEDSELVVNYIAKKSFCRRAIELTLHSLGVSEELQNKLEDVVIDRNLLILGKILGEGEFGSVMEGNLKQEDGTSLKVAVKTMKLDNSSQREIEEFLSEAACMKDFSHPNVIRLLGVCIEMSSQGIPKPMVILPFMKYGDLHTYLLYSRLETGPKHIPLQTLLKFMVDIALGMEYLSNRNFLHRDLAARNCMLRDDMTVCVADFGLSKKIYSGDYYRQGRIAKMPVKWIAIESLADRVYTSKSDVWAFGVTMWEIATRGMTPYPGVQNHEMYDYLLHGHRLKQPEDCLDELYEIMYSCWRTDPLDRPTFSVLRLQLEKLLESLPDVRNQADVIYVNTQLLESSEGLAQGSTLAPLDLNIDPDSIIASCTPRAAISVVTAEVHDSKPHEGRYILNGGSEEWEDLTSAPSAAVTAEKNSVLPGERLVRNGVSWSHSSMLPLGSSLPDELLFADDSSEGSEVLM
Kind of test: Mer autophosphorylation ELISA in transient transfected 293A cells. It counts as cell-based. The following applies: Table 3 Cellular Activities; MERTK-transfected 293A cells, phospho-Mer ELISA. Summed up: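 Phospho-Mer quantified by ELISA in lysates of transiently MERTK-transfected 293A cells after 1 h exposure to an 8-point compound series, serum-free, 0.3% DMSO. Activity normalized between DMSO-treated (100%) and reference inhibitor-treated (0%) lysates; IC50 via 4-parameter nonlinear regression.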

Another test concerns the target KDR (Homo sapiens, UniProt P35968). Briefly: KDR autophosphorylation ELISA in HUVEC cells. It counts as cell-based. The arrangement: endogenous in cells; host or cells: HUVEC (Lonza #C2519A). The following applies: Table 3 Cellular Activities, VEGF165-stimulated, phospho-KDR ELISA. Summed up: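 Compound pretreatment (1 h, 0.3% DMSO) of serum-starved HUVEC preceded a 5 min pulse of 100 ng/mL VEGF165, after which cells were lysed. Phospho-KDR was quantified by ELISA relative to stimulated and unstimulated controls.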
For orientation: ELISA stands for enzyme-linked immunosorbent assay.

The structures appear in SMILES notation. Counter-ions that a name gives are not always drawn.

KDR, sequence (P35968 20-1356): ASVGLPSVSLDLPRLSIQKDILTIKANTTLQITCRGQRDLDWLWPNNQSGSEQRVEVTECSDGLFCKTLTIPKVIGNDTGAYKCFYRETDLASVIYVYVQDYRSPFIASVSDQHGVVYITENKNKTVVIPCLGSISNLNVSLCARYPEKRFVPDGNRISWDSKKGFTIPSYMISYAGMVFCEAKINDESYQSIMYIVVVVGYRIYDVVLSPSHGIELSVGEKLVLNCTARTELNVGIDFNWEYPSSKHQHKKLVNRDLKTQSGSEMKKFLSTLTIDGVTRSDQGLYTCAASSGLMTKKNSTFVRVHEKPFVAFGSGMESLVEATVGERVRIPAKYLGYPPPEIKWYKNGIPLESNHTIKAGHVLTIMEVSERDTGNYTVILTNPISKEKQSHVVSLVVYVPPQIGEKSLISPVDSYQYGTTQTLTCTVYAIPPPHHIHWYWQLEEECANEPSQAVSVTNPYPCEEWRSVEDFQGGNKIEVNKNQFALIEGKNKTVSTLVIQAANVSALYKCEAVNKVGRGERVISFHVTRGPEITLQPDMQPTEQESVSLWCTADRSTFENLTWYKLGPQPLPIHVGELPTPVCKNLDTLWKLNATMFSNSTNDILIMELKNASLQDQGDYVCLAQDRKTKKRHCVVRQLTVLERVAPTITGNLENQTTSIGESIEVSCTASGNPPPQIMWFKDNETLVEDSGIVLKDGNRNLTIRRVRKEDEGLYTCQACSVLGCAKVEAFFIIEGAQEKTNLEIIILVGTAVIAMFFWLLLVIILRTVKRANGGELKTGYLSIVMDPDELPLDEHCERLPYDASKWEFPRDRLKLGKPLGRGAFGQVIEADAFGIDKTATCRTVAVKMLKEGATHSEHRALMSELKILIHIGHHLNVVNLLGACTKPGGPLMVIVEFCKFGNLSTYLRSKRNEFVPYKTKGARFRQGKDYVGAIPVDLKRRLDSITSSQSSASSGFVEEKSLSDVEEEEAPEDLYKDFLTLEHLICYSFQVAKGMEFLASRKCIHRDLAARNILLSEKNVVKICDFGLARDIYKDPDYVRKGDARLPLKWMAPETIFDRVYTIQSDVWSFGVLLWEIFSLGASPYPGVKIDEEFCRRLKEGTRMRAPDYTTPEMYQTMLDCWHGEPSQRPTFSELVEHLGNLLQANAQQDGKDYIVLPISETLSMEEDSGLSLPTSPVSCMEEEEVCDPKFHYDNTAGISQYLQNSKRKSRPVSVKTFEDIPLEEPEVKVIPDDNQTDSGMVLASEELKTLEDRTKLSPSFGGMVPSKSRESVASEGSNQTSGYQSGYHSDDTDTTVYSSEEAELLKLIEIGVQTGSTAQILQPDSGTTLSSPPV

In general, IC50 refers to the concentration that inhibits the measured activity by half. High values mean lower potency, low ones higher potency. As for `COc1cc2nccc(Oc3ccc(NC(=O)c4cnc(C)c(-c5cncs5)c4O)cc3F)c2nc1OC` [Compound 141, N-[4-[(6,7-Dimethoxy-1,5-naphthyridin-4-yl)oxy]-3-fluorophenyl]-4-hydroxy-6-methyl-5-(1,3-thiazol-5-yl)pyridine-3-carboxamide], the 50% inhibitory concentration (IC50) on Mer and against KDR was not above 100 nM in each case.

Consider `COc1cc2nccc(Oc3ccc(NC(=O)c4cnc(C)c(-c5cscn5)c4O)cc3F)c2nc1OC` [Compound 142, N-[4-[(6,7-Dimethoxy-1,5-naphthyridin-4-yl)oxy]-3-fluorophenyl]-4-hydroxy-6-methyl-5-(1,3-thiazol-4-yl)pyridine-3-carboxamide], for which the half-inhibitory concentration (IC50) against Mer and on KDR was not above 100 nM in each case.

With `COc1cc2nccc(Oc3ccc(NC(=O)c4cnc(C)c(-c5nccs5)c4O)cc3F)c2nc1OC` [Compound 143, N-[4-[(6,7-Dimethoxy-1,5-naphthyridin-4-yl)oxy]-3-fluorophenyl]-4-hydroxy-6-methyl-5-(1,3-thiazol-2-yl)pyridine-3-carboxamide], the IC50 at Mer and against KDR was not above 100 nM each time.

Consider `CCc1ccc(-c2c(C)nc(C)c(C(=O)Nc3ccc(Oc4ccnc5cc(OC)c(OC)nc45)c(F)c3)c2O)o1` [Compound 147, N-[4-[(6,7-Dimethoxy-1,5-naphthyridin-4-yl)oxy]-3-fluorophenyl]-5-(5-ethylfuran-2-yl)-4-hydroxy-2,6-dimethylpyridine-3-carboxamide], for which the 50% inhibitory concentration (IC50) on Mer and on KDR was not above 100 nM throughout.

Regarding `COc1cc2nccc(Oc3ccc(NC(=O)c4c(C)nc(C)c(-c5ccc(C(C)C)o5)c4O)cc3F)c2nc1OC` [Compound 148, N-[4-[(6,7-Dimethoxy-1,5-naphthyridin-4-yl)oxy]-3-fluorophenyl]-4-hydroxy-2,6-dimethyl-5-(5-propan-2-ylfuran-2-yl)pyridine-3-carboxamide], the half-maximal inhibitory concentration (IC50) on Mer and against KDR was not above 100 nM in each case.

Consider `C=Cc1ccc(-c2c(C)ncc(C(=O)Nc3ccc(Oc4ccnc5cc(OC)c(OC)nc45)c(F)c3)c2O)o1` [Compound 151, N-[4-[(6,7-Dimethoxy-1,5-naphthyridin-4-yl)oxy]-3-fluorophenyl]-5-(5-ethenylfuran-2-yl)-4-hydroxy-6-methylpyridine-3-carboxamide], for which the IC50 against Mer and against KDR was not above 100 nM throughout.

As for `C=C(C)c1ccc(-c2c(C)ncc(C(=O)Nc3ccc(Oc4ccnc5cc(OC)c(OC)nc45)c(F)c3)c2O)o1` [Compound 152, N-[4-[(6,7-Dimethoxy-1,5-naphthyridin-4-yl)oxy]-3-fluorophenyl]-4-hydroxy-6-methyl-5-(5-prop-1-en-2-ylfuran-2-yl)pyridine-3-carboxamide], the IC50 against Mer and on KDR was not above 100 nM throughout.

Consider `CCc1ccc(-c2c(C)ncc(C(=O)Nc3ccc(Oc4ccnc5cc(OC)c(OC)nc45)c(F)c3)c2O)o1` [Compound 153, N-[4-[(6,7-Dimethoxy-1,5-naphthyridin-4-yl)oxy]-3-fluorophenyl]-5-(5-ethylfuran-2-yl)-4-hydroxy-6-methylpyridine-3-carboxamide], for which the IC50 against Mer and against KDR was not above 100 nM throughout.

On to `COc1cc2nccc(Oc3ccc(NC(=O)c4cnc(C)c(-c5ccc(C(C)C)o5)c4O)cc3F)c2nc1OC` [Compound 154, N-[4-[(6,7-Dimethoxy-1,5-naphthyridin-4-yl)oxy]-3-fluorophenyl]-4-hydroxy-6-methyl-5-(5-propan-2-ylfuran-2-yl)pyridine-3-carboxamide], for which the IC50 on Mer and against KDR was not above 100 nM throughout.

Turning to `C=CCc1ccc(-c2c(C)ncc(C(=O)Nc3ccc(Oc4ccnc5cc(OC)c(OC)nc45)c(F)c3)c2O)o1` [Compound 155, N-[4-[(6,7-Dimethoxy-1,5-naphthyridin-4-yl)oxy]-3-fluorophenyl]-4-hydroxy-6-methyl-5-(5-prop-2-enylfuran-2-yl)pyridine-3-carboxamide], the 50% inhibitory concentration (IC50) at Mer and on KDR was not above 100 nM in each case.

Turning to `COc1cc2nccc(Oc3ccc(NC(=O)c4cnc(C)c(-c5ccc(C6CC6)o5)c4O)cc3F)c2nc1OC` [Compound 155A, 5-(5-Cyclopropylfuran-2-yl)-N-[4-[(6,7-dimethoxy-1,5-naphthyridin-4-yl)oxy]-3-fluorophenyl]-4-hydroxy-6-methylpyridine-3-carboxamide hydrochloride], the concentration for half-maximal inhibition (IC50) at Mer and against KDR was not above 100 nM throughout.

As to `COc1cc2nccc(Oc3ccc(NC(=O)c4c(C)nc(C)c(-c5ccc(C6CC6)o5)c4O)cc3F)c2nc1OC` [Compound 155B, 5-(5-Cyclopropylfuran-2-yl)-N-[4-[(6,7-dimethoxy-1,5-naphthyridin-4-yl)oxy]-3-fluorophenyl]-4-hydroxy-2,6-dimethylpyridine-3-carboxamide], the IC50 against Mer and against KDR was not above 100 nM throughout.

On to `COc1cc2nccc(Oc3ccc(NC(=O)c4c(C)n(C)c(C)c(-c5ccco5)c4=O)cc3F)c2nc1OC` [Compound 160, N-[4-[(6,7-Dimethoxy-1,5-naphthyridin-4-yl)oxy]-3-fluorophenyl]-5-(furan-2-yl)-1,2,6-trimethyl-4-oxopyridine-3-carboxamide], for which the IC50 against Mer is not above 100 nM; on KDR, 100 to 300 nM.

Consider `COc1cc2nccc(Oc3cc(F)c(NC(=O)c4c(C)n(C)c(C)c(-c5ccco5)c4=O)cc3F)c2nc1OC` [Compound 163, N-[4-[(6,7-Dimethoxy-1,5-naphthyridin-4-yl)oxy]-2,5-difluorophenyl]-5-(furan-2-yl)-1,2,6-trimethyl-4-oxopyridine-3-carboxamide], for which the half-maximal inhibitory concentration (IC50) is not above 100 nM on Mer and 300 to 1000 nM against KDR.

`COc1cc2nccc(Oc3ccc(NC(=O)c4c(C)n(C)c(C)c(-c5ccco5)c4=O)cc3)c2nc1OC` [Compound 164, N-[4-[(6,7-Dimethoxy-1,5-naphthyridin-4-yl)oxy]phenyl]-5-(furan-2-yl)-1,2,6-trimethyl-4-oxopyridine-3-carboxamide]: the IC50 at Mer was not above 100 nM; on KDR, 300 to 1000 nM.

For `COc1cnc2c(Oc3ccc(NC(=O)c4c(C)n(C)c(C)c(-c5cccs5)c4=O)cc3)ccnc2c1` [Compound 165, N-[4-[(7-Methoxy-1,5-naphthyridin-4-yl)oxy]phenyl]-1,2,6-trimethyl-4-oxo-5-thiophen-2-ylpyridine-3-carboxamide], the figures for the half-maximal inhibitory concentration (IC50) on Mer and on KDR were not above 100 nM and 300 to 1000 nM, respectively.

For `COc1cnc2c(Oc3ccc(NC(=O)c4c(C)n(C)c(C)c(-c5cccs5)c4=O)cc3F)ccnc2c1` [Compound 166, N-[3-Fluoro-4-[(7-methoxy-1,5-naphthyridin-4-yl)oxy]phenyl]-1,2,6-trimethyl-4-oxo-5-thiophen-2-ylpyridine-3-carboxamide], the concentration for half-maximal inhibition (IC50) against Mer was not above 100 nM; against KDR it was 300 to 1000 nM.

For `COc1cc2nccc(Oc3ccc(NC(=O)c4c(C)n(C)c(C)c(-c5cccs5)c4=O)cc3)c2nc1OC` [Compound 167, N-[4-[(6,7-Dimethoxy-1,5-naphthyridin-4-yl)oxy]phenyl]-1,2,6-trimethyl-4-oxo-5-thiophen-2-ylpyridine-3-carboxamide], the IC50 was not above 100 nM against Mer and 300 to 1000 nM against KDR.

These data come from US20230151003A1, “COMPOUNDS AND METHODS OF USE” (Exelixis, Inc., priority 2020, published 2023).
